# Source: PubChem BioAssay AID2060497 (Molecular Pharmacology Branch, DTP, NCI, 2025)
# Tested on: 317291-083-R-J1-PDC complex spheroids, viability
# Assay: Anticancer human tumor 317291-083-R-J1-PDC patient-derived soft tissue sarcoma cell line growth inhibition [GQUAD]
# Conditions: for IC50: curve of first compound; for viability, T/C: stronger effect = lower value
# Method in brief: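 Tumor cells were grown as complex spheroids with HUVEC endothelial cells and mesenchymal stem cells as stroma. G-quadruplex stabilizers were combined with targeted agents over half-log dilutions from near the clinical Cmax, or from 10 microM.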
# [1] = second compound 0.0316 µM, first compound 0.0316 µM
# [2] = second compound 0.0316 µM, first compound 0.1 µM
# [3] = second compound 0.0316 µM, first compound 0.316 µM
# [4] = second compound 0.0316 µM, first compound 1 µM
# [5] = second compound 0.0316 µM, first compound 3.16 µM
# [6] = second compound 0.0316 µM, first compound 10 µM
# [7] = second compound 0.1 µM, first compound 0.0316 µM
# [8] = second compound 0.1 µM, first compound 0.1 µM
# [9] = second compound 0.1 µM, first compound 0.316 µM
# [10] = second compound 0.1 µM, first compound 1 µM
# [11] = second compound 0.1 µM, first compound 3.16 µM
# [12] = second compound 0.1 µM, first compound 10 µM
# [13] = second compound 0.316 µM, first compound 0.0316 µM
# [14] = second compound 0.316 µM, first compound 0.1 µM
# [15] = second compound 0.316 µM, first compound 0.316 µM
# [16] = second compound 0.316 µM, first compound 1 µM
# [17] = second compound 0.316 µM, first compound 3.16 µM
# [18] = second compound 0.316 µM, first compound 10 µM
# [19] = second compound 1 µM, first compound 0.0316 µM
# [20] = second compound 1 µM, first compound 0.1 µM
# [21] = second compound 1 µM, first compound 0.316 µM
# [22] = second compound 1 µM, first compound 1 µM
# [23] = second compound 1 µM, first compound 3.16 µM
# [24] = second compound 1 µM, first compound 10 µM
# [25] = second compound 3.16 µM, first compound 0.0316 µM
# [26] = second compound 3.16 µM, first compound 0.1 µM
# [27] = second compound 3.16 µM, first compound 0.316 µM
# [28] = second compound 3.16 µM, first compound 1 µM
# [29] = second compound 3.16 µM, first compound 3.16 µM
# [30] = second compound 3.16 µM, first compound 10 µM
# [31] = second compound 10 µM, first compound 0.0316 µM
# [32] = second compound 10 µM, first compound 0.1 µM
# [33] = second compound 10 µM, first compound 0.316 µM
# [34] = second compound 10 µM, first compound 1 µM
# [35] = second compound 10 µM, first compound 3.16 µM
# [36] = second compound 10 µM, first compound 10 µM
# 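Also: spheroids exposed to compounds for one week before readout.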
# 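For viability, T/C in this document: percent viability relative to DMSO vehicle wells taken as 100%.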
smiles,measurement,setting,value
C#Cc1c(F)ccc2cc(O)cc(-c3ncc4c(N5CC6CCC(C5)N6)nc(OCC56CCCN5CC(F)C6)nc4c3F)c12 (centres undefined) + Cc1cnc(CNC(=O)c2c(=O)c3ccc(N4CCCN(C)CC4)nc3n3c2sc2ccccc23)cn1,IC50,second compound 0.0316 µM,> 10000 nM
same,IC50,second compound 0.1 µM,> 10000 nM
same,IC50,second compound 0.316 µM,< 31.6 nM
same,IC50,second compound 1 µM,< 31.6 nM
same,IC50,second compound 3.16 µM,< 31.6 nM
same,IC50,second compound 10 µM,< 31.6 nM
same,"viability, T/C",[1],107%
same,"viability, T/C",[2],104%
same,"viability, T/C",[3],99.9%
same,"viability, T/C",[4],105%
same,"viability, T/C",[5],90.6%
same,"viability, T/C",[6],66.5%
same,"viability, T/C",[7],89%
same,"viability, T/C",[8],74.4%
same,"viability, T/C",[9],57.7%
same,"viability, T/C",[10],87.2%
same,"viability, T/C",[11],76%
same,"viability, T/C",[12],80.9%
same,"viability, T/C",[13],45.3%
same,"viability, T/C",[14],52.1%
same,"viability, T/C",[15],53.3%
same,"viability, T/C",[16],36.7%
same,"viability, T/C",[17],51.7%
same,"viability, T/C",[18],51.8%
same,"viability, T/C",[19],31.4%
same,"viability, T/C",[20],36.5%
same,"viability, T/C",[21],38.9%
same,"viability, T/C",[22],24.8%
same,"viability, T/C",[23],27.4%
same,"viability, T/C",[24],21%
same,"viability, T/C",[25],14.7%
same,"viability, T/C",[26],18.3%
same,"viability, T/C",[27],31.5%
same,"viability, T/C",[28],14.1%
same,"viability, T/C",[29],22.6%
same,"viability, T/C",[30],19.1%
same,"viability, T/C",[31],38.2%
same,"viability, T/C",[32],22.9%
same,"viability, T/C",[33],10.5%
same,"viability, T/C",[34],13.7%
same,"viability, T/C",[35],11.1%
same,"viability, T/C",[36],3.98%
CC(C)(O)C1CCC(Nc2ccc3ncc(-c4cccc(C(F)(F)F)c4)n3n2)CC1 (centres undefined) + Cc1cnc(CNC(=O)c2c(=O)c3ccc(N4CCCN(C)CC4)nc3n3c2sc2ccccc23)cn1,IC50,second compound 0.0316 µM,507 nM
same,IC50,second compound 0.1 µM,342 nM
same,IC50,second compound 0.316 µM,91.4 nM
same,IC50,second compound 1 µM,< 31.6 nM
same,IC50,second compound 3.16 µM,< 31.6 nM
same,IC50,second compound 10 µM,< 31.6 nM
same,"viability, T/C",[1],87.8%
same,"viability, T/C",[2],76.5%
same,"viability, T/C",[3],72.1%
same,"viability, T/C",[4],19%
same,"viability, T/C",[5],0.22%
same,"viability, T/C",[6],0.45%
same,"viability, T/C",[7],58.2%
same,"viability, T/C",[8],60%
same,"viability, T/C",[9],49.1%
same,"viability, T/C",[10],28%
same,"viability, T/C",[11],0.24%
same,"viability, T/C",[12],1.34%
same,"viability, T/C",[13],72.8%
same,"viability, T/C",[14],37.8%
same,"viability, T/C",[15],37.8%
same,"viability, T/C",[16],24.8%
same,"viability, T/C",[17],1.74%
same,"viability, T/C",[18],2.26%
same,"viability, T/C",[19],30.8%
same,"viability, T/C",[20],19.5%
same,"viability, T/C",[21],16%
same,"viability, T/C",[22],25.2%
same,"viability, T/C",[23],0.05%
same,"viability, T/C",[24],0.07%
same,"viability, T/C",[25],13.3%
same,"viability, T/C",[26],14.7%
same,"viability, T/C",[27],8.5%
same,"viability, T/C",[28],0.54%
same,"viability, T/C",[29],0.12%
same,"viability, T/C",[30],0.16%
same,"viability, T/C",[31],1.34%
same,"viability, T/C",[32],0.11%
same,"viability, T/C",[33],0.17%
same,"viability, T/C",[34],0.12%
same,"viability, T/C",[35],0.21%
same,"viability, T/C",[36],0.22%
